In ChEMBL document CHEMBL1201861, “Genomics of Drug Sensitity in Cancer screening data, Wellcome Trust Sanger Institute”:

Tests used:
Test in all cases: cells
CP66-MEL = format: functional, cell-based, Homo sapiens; details: Homo sapiens, CP66-MEL;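 further: growth inhibition of CP66-MEL cells determined in a cell viability assay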
Description: SANGER: Inhibition of human CP66-MEL cell growth in a cell viability assay.

Ca9-22 = format: functional, cell-based, Homo sapiens; details: Homo sapiens, Ca9-22;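 further: growth inhibition of Ca9-22 cells, read out with a cell viability assay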
Description: SANGER: Inhibition of human Ca9-22 cell growth in a cell viability assay.

Calu-6 = format: functional, cell-based, Homo sapiens; details: Homo sapiens, Calu-6;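 further: growth of human Calu-6 cells, read out by a cell viability assay, IC50 marking inhibition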
Description: SANGER: Inhibition of human Calu-6 cell growth in a cell viability assay.

D-263MG = format: functional, cell-based, Homo sapiens; details: Homo sapiens, D-263MG
Description: SANGER: Inhibition of human D-263MG cell growth in a cell viability assay.

EFM-19 = format: functional, cell-based, Homo sapiens; details: Homo sapiens, EFM-19;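 further: growth inhibition of human EFM-19 cells, measured in a cell viability assay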
Description: SANGER: Inhibition of human EFM-19 cell growth in a cell viability assay.

EFO-21 = format: functional, cell-based, Homo sapiens; details: Homo sapiens, EFO-21;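 further: growth inhibition of EFO-21 cells measured with a viability assay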
Description: SANGER: Inhibition of human EFO-21 cell growth in a cell viability assay.

ES7 = format: functional, cell-based, Homo sapiens; details: Homo sapiens, ES7;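 further: growth inhibition of cultured human ES7 cells, read out as cell viability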
Description: SANGER: Inhibition of human ES7 cell growth in a cell viability assay.

GAMG = format: functional, cell-based, Homo sapiens; details: Homo sapiens, GAMG;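 further: cell growth inhibition measured by a viability assay in the GAMG human cell line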
Description: SANGER: Inhibition of human GAMG cell growth in a cell viability assay.

GP5d = format: functional, cell-based, Homo sapiens; details: Homo sapiens, GP5d;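 further: growth inhibition of human GP5d cells, read out with a cell viability assay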
Description: SANGER: Inhibition of human GP5d cell growth in a cell viability assay.

GT3TKB = format: functional, cell-based, Homo sapiens; details: Homo sapiens, GT3TKB;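 further: growth inhibition of the cell line, read out with a cell viability assay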
Description: SANGER: Inhibition of human GT3TKB cell growth in a cell viability assay.

HCE-4 = format: functional, cell-based, Homo sapiens; details: Homo sapiens, HCE-4;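 further: cell viability assay measuring inhibition of growth in the human HCE-4 cell line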
Description: SANGER: Inhibition of human HCE-4 cell growth in a cell viability assay.

HSC-2 = format: functional, cell-based, Homo sapiens; details: Homo sapiens, HSC-2;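 further: growth inhibition of human HSC-2 cells, read out by a cell viability assay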
Description: SANGER: Inhibition of human HSC-2 cell growth in a cell viability assay.

HT-29 = format: functional, cell-based, Homo sapiens; details: Homo sapiens, HT-29;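 further: growth inhibition of human HT-29 cells, read out by a cell viability assay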
Description: SANGER: Inhibition of human HT-29 cell growth in a cell viability assay.

HT-3 = format: functional, cell-based, Homo sapiens; details: Homo sapiens, HT-3;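 further: growth inhibition measured with a cell viability readout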
Description: SANGER: Inhibition of human HT-3 cell growth in a cell viability assay.

HuP-T4 = format: functional, cell-based, Homo sapiens; details: Homo sapiens, HuP-T4;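 further: cell viability assay measuring how much HuP-T4 cell growth is inhibited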
Description: SANGER: Inhibition of human HuP-T4 cell growth in a cell viability assay.

JVM-2 = format: functional, cell-based; details: Homo sapiens;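 further: growth inhibition of JVM-2 cells determined by a cell viability assay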
Description: SANGER: Inhibition of human JVM-2 cell growth in a cell viability assay.

KM-H2 = format: functional, cell-based; details: Homo sapiens;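 further: growth inhibition of KM-H2 cells, read out by a cell viability assay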
Description: SANGER: Inhibition of human KM-H2 cell growth in a cell viability assay.

KOSC-2 = format: functional, cell-based, Homo sapiens; details: Homo sapiens, KOSC-2;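 further: growth inhibition of KOSC-2 cells, read out by a cell viability assay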
KYSE-520 cell line = format: functional, cell-based, Homo sapiens; details: Homo sapiens, KYSE-520;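 further: growth inhibition of human KYSE-520 cells, read out with a viability assay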
Description: SANGER: Inhibition of human KYSE-520 cell growth in a cell viability assay.

LC-2-ad = format: functional, cell-based, Homo sapiens; details: Homo sapiens, LC-2-ad;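 further: growth inhibition of human LC-2-ad cells, read out with a cell viability assay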
Description: SANGER: Inhibition of human LC-2-ad cell growth in a cell viability assay.

LCLC-97TM1 = format: functional, cell-based, Homo sapiens; details: Homo sapiens, LCLC-97TM1;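 further: cell viability assay measuring growth inhibition of human LCLC-97TM1 cells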
Description: SANGER: Inhibition of human LCLC-97TM1 cell growth in a cell viability assay.

MC-IXC = format: functional, cell-based, Homo sapiens; details: Homo sapiens, MC-IXC;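 further: growth inhibition of MC-IXC cells, read out with a cell viability assay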
Description: SANGER: Inhibition of human MC-IXC cell growth in a cell viability assay.

MDA-MB-361 = format: functional, cell-based, Homo sapiens; details: Homo sapiens, MDA-MB-361
MDA-MB-453 = format: functional, cell-based, Homo sapiens; details: Homo sapiens, MDA-MB-453
Description: SANGER: Inhibition of human MDA-MB-453 cell growth in a cell viability assay.

ME-180 = format: functional, cell-based; details: Homo sapiens;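 further: cell viability assay measuring growth inhibition of ME-180 cells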
Description: SANGER: Inhibition of human ME-180 cell growth in a cell viability assay.

MFM-223 = format: functional, cell-based, Homo sapiens; details: Homo sapiens, MFM-223
Description: SANGER: Inhibition of human MFM-223 cell growth in a cell viability assay.

MIA PaCa-2 = format: functional, cell-based, Homo sapiens; details: Homo sapiens, MIA PaCa-2;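 further: growth inhibition of MIA PaCa-2 cells, read out with a cell viability assay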
Description: SANGER: Inhibition of human MIA-PaCa-2 cell growth in a cell viability assay.

NCI-H1650 = format: functional, cell-based, Homo sapiens; details: Homo sapiens, NCI-H1650;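 further: growth inhibition of human NCI-H1650 cells measured by a cell viability assay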
Description: SANGER: Inhibition of human NCI-H1650 cell growth in a cell viability assay.

NCI-H446 = format: functional, cell-based; details: Homo sapiens;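 further: growth inhibition of NCI-H446 cells determined by a cell viability assay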
Description: SANGER: Inhibition of human NCI-H446 cell growth in a cell viability assay.

NCI-H720 = format: functional, cell-based; details: Homo sapiens;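 further: growth inhibition of human NCI-H720 cells determined by a cell viability assay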
Description: SANGER: Inhibition of human NCI-H720 cell growth in a cell viability assay.

NH-12 = format: functional, cell-based, Homo sapiens; details: Homo sapiens, NH-12;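 further: growth inhibition of NH-12 cells, read out with a cell viability assay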
Description: SANGER: Inhibition of human NH-12 cell growth in a cell viability assay.

NMC-G1 = format: functional, cell-based, Homo sapiens; details: Homo sapiens, NMC-G1;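 further: growth inhibition of the NMC-G1 cell line, measured with a cell viability read-out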
Description: SANGER: Inhibition of human NMC-G1 cell growth in a cell viability assay.

ONS-76 = format: functional, cell-based, Homo sapiens; details: Homo sapiens, ONS-76;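 further: growth inhibition of human ONS-76 cells, read out with a cell viability assay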
Description: SANGER: Inhibition of human ONS-76 cell growth in a cell viability assay.

OS-RC-2 = format: functional, cell-based, Homo sapiens; details: Homo sapiens, OS-RC-2;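 further: growth inhibition of human OS-RC-2 cells, measured by a cell viability assay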
Description: SANGER: Inhibition of human OS-RC-2 cell growth in a cell viability assay.

RPMI-2650 = format: functional, cell-based, Homo sapiens; details: Homo sapiens, RPMI-2650
Description: SANGER: Inhibition of human RPMI-2650 cell growth in a cell viability assay.

SK-N-AS = format: functional, cell-based, Homo sapiens; details: Homo sapiens, SK-N-AS;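 further: growth inhibition of human SK-N-AS cells, measured with a cell viability assay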
Description: SANGER: Inhibition of human SK-N-AS cell growth in a cell viability assay.

SK-N-DZ = format: functional, cell-based, Homo sapiens; details: Homo sapiens, SK-N-DZ;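 further: growth inhibition of the cancer cell line, read out through a viability assay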
Description: SANGER: Inhibition of human SK-N-DZ cell growth in a cell viability assay.

SK-UT-1 = format: functional, cell-based, Homo sapiens; details: Homo sapiens, SK-UT-1;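 further: growth inhibition of SK-UT-1 cells, measured by a cell viability assay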
Description: SANGER: Inhibition of human SK-UT-1 cell growth in a cell viability assay.

SW1573 = format: functional, cell-based, Homo sapiens; details: Homo sapiens, SW1573;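 further: growth inhibition of SW1573 cells, read out with a cell viability assay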
Description: SANGER: Inhibition of human SW1573 cell growth in a cell viability assay.

SW1783 = format: functional, cell-based; details: Homo sapiens;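 further: cell growth inhibition measured with a viability assay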
Description: SANGER: Inhibition of human SW1783 cell growth in a cell viability assay.

SW948 = format: functional, cell-based, Homo sapiens; details: Homo sapiens, SW948;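 further: growth inhibition of SW948 cells, read out with a cell viability assay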
Description: SANGER: Inhibition of human SW948 cell growth in a cell viability assay.

TE-1 = format: functional, cell-based, Homo sapiens; details: Homo sapiens, TE-1;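 further: growth inhibition of the human TE-1 cell line, read out with a cell viability assay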
Description: SANGER: Inhibition of human TE-1 cell growth in a cell viability assay.

A253 cell line = format: functional, cell-based, Homo sapiens; details: Homo sapiens, A253;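 further: growth inhibition of A253 cells, read out with a cell viability assay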
Description: SANGER: Inhibition of human A253 cell growth in a cell viability assay.

A-375 = format: functional, cell-based, Homo sapiens; details: Homo sapiens, A-375;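 further: growth inhibition of A375 cells, read out with a cell viability assay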
Description: SANGER: Inhibition of human A375 cell growth in a cell viability assay.

A388 = format: functional, cell-based, Homo sapiens; details: Homo sapiens, A388;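 further: growth inhibition of human A388 cells, read out with a cell viability assay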
Description: SANGER: Inhibition of human A388 cell growth in a cell viability assay.

A-431 = format: functional, cell-based, Homo sapiens; details: Homo sapiens, A-431;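 further: growth inhibition of A-431 cells, determined with a cell viability read-out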
Description: SANGER: Inhibition of human A431 cell growth in a cell viability assay.

U-118-MG = format: functional, cell-based, Homo sapiens; details: Homo sapiens, U-118-MG
Description: SANGER: Inhibition of human U-118-MG cell growth in a cell viability assay.

U2OS = format: functional, cell-based, Homo sapiens, U-2-OS; details: Homo sapiens, U2OS;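 further: growth inhibition of human U-2-OS cells, determined with a cell viability assay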
Description: SANGER: Inhibition of human U-2-OS cell growth in a cell viability assay.

CAMA-1 = format: functional, cell-based, Homo sapiens; details: Homo sapiens, CAMA-1;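 further: growth inhibition of CAMA-1 cells, read out with a cell viability assay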
Description: SANGER: Inhibition of human CAMA-1 cell growth in a cell viability assay.

COLO-320-HSR = format: functional, cell-based; details: Homo sapiens;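 further: growth inhibition of COLO-320-HSR cells, determined with a cell viability assay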
Description: SANGER: Inhibition of human COLO-320-HSR cell growth in a cell viability assay.

In the case of Cc1ccc(Nc2nccc(N(C)c3ccc4c(C)n(C)nc4c3)n2)cc1S(N)(=O)=O [PAZOPANIB], the IC50 (CP66-MEL) is reported as > 8 µM, the IC50 (Ca9-22) is reported as > 8 µM and the IC50 (Calu-6) is reported as > 8 µM. The IC50 (D-263MG) was > 8 µM, the IC50 (EFM-19) was > 8 µM and the IC50 (EFO-21) was > 8 µM. The IC50 (ES7) was > 8 µM, the IC50 (GAMG) was 6.18 µM and the IC50 (GP5d) was > 8 µM. The IC50 (GT3TKB) was > 8 µM, the IC50 (HCE-4) was > 8 µM and the IC50 (HSC-2) was > 8 µM. For the same molecule, the IC50 (HT-29) was > 8 µM, the IC50 (HT-3) was > 8 µM and the IC50 (HuP-T4) was > 8 µM. The IC50 (JVM-2) was > 8 µM, the IC50 (KM-H2) was > 8 µM and the IC50 (KOSC-2) was > 8 µM. For the same molecule, the IC50 (KYSE-520 cell line) was > 8 µM, the IC50 (LC-2-ad) was > 8 µM and the IC50 (LCLC-97TM1) was > 8 µM. The IC50 (MC-IXC) was 1.12 µM, the IC50 (MDA-MB-361) was > 8 µM and the IC50 (MDA-MB-453) was > 8 µM. For the same molecule, the IC50 (ME-180) was > 8 µM, the IC50 (MFM-223) was > 8 µM and the IC50 (MIA PaCa-2) was 5.6 µM. For the same molecule, the IC50 (NCI-H1650) was > 8 µM, the IC50 (NCI-H446) was > 8 µM and the IC50 (NCI-H720) was > 8 µM. For the same molecule, the IC50 (NH-12) was > 8 µM, the IC50 (NMC-G1) was 6.55 µM and the IC50 (ONS-76) was > 8 µM. For the same molecule, the IC50 (OS-RC-2) was > 8 µM, the IC50 (RPMI-2650) was > 8 µM and the IC50 (SK-N-AS) was > 8 µM. The IC50 (SK-N-DZ) was 2.02 µM, the IC50 (SK-UT-1) was > 8 µM and the IC50 (SW1573) was > 8 µM. The IC50 (SW1783) was > 8 µM, the IC50 (SW948) was > 8 µM and the IC50 (TE-1) was > 8 µM. The IC50 (A253 cell line) was > 8 µM, the IC50 (A-375) was > 8 µM and the IC50 (A388) was > 8 µM. The IC50 (A-431) was > 8 µM, the IC50 (U-118-MG) was > 8 µM and the IC50 (U2OS) was > 8 µM. The IC50 (CAMA-1) was > 8 µM and the IC50 (COLO-320-HSR) was > 8 µM.
For CN(c1ncccc1CNc1nc(Nc2ccc3c(c2)CC(=O)N3)ncc1C(F)(F)F)S(C)(=O)=O [PF-00562271], the IC50 (CP66-MEL) was > 2.56 µM, the IC50 (Ca9-22) was > 2.56 µM and the IC50 (Calu-6) was > 2.56 µM. For the same molecule, the IC50 (D-263MG) was > 2.56 µM, the IC50 (EFM-19) was > 2.56 µM and the IC50 (EFO-21) was > 2.56 µM. The IC50 (ES7) was > 2.56 µM, the IC50 (GAMG) was > 2.56 µM and the IC50 (GP5d) was > 2.56 µM. The IC50 (GT3TKB) was > 2.56 µM, the IC50 (HCE-4) was > 2.56 µM and the IC50 (HSC-2) was 1.54 µM. For the same molecule, the IC50 (HT-29) was > 2.56 µM, the IC50 (HT-3) was > 2.56 µM and the IC50 (HuP-T4) was > 2.56 µM. For the same molecule, the IC50 (JVM-2) was > 2.56 µM, the IC50 (KM-H2) was > 2.56 µM and the IC50 (KOSC-2) was > 2.56 µM. The IC50 (KYSE-520 cell line) was > 2.56 µM, the IC50 (LC-2-ad) was 2.27 µM and the IC50 (LCLC-97TM1) was > 2.56 µM. For the same molecule, the IC50 (MC-IXC) was > 2.56 µM, the IC50 (MDA-MB-361) was > 2.56 µM and the IC50 (MDA-MB-453) was > 2.56 µM. For the same molecule, the IC50 (ME-180) was > 2.56 µM, the IC50 (MFM-223) was > 2.56 µM and the IC50 (MIA PaCa-2) was > 2.56 µM. The IC50 (NCI-H1650) was > 2.56 µM, the IC50 (NCI-H446) was > 2.56 µM and the IC50 (NCI-H720) was > 2.56 µM. The IC50 (NH-12) was > 2.56 µM, the IC50 (NMC-G1) was > 2.56 µM and the IC50 (ONS-76) was > 2.56 µM. For the same molecule, the IC50 (OS-RC-2) was > 2.56 µM, the IC50 (RPMI-2650) was > 2.56 µM and the IC50 (SK-N-AS) was > 2.56 µM. The IC50 (SK-N-DZ) was > 2.56 µM, the IC50 (SK-UT-1) was 1.45 µM and the IC50 (SW1573) was > 2.56 µM. The IC50 (SW1783) was > 2.56 µM, the IC50 (SW948) was > 2.56 µM and the IC50 (TE-1) was > 2.56 µM. The IC50 (A253 cell line) was > 2.56 µM, the IC50 (A-375) was > 2.56 µM and the IC50 (A388) was > 2.56 µM. For the same molecule, the IC50 (A-431) was > 2.56 µM, the IC50 (U-118-MG) was > 2.56 µM and the IC50 (U2OS) was > 2.56 µM. The IC50 (CAMA-1) was > 2.56 µM and the IC50 (COLO-320-HSR) was > 2.56 µM.
